Tests used:
Assay type in all cases: biochemical
IRAK4 = target: T1, IRAK4 (Homo sapiens, UniProt Q9NWZ3); experiment: RBC HotSpot Kinase Assay, IRAK4; parameters: purchased Reaction Biology (RBC HotSpot Kinase Assay)
T1 sequence (Q9NWZ3 1-460): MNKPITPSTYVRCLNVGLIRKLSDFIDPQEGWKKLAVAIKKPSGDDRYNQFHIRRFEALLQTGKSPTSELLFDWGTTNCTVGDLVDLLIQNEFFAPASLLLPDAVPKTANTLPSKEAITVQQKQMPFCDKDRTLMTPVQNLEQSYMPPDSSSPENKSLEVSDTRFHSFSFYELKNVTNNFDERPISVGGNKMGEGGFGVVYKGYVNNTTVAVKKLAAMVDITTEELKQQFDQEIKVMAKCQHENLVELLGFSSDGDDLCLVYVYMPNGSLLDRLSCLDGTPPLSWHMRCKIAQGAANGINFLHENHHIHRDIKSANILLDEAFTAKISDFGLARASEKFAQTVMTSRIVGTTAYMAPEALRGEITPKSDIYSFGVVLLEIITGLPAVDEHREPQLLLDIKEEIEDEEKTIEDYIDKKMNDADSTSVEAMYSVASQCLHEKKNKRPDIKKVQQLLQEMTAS
Text: (§1) This assay uses the isolated kinase enzyme. This assay is very useful for determining competition of the inhibitor for ATP and/or substrates and for measuring the kinetics of enzyme inhibition. […] Unlike kinase binding assays that measure competition for ATP, the HotSpot Kinase Assay is a functional assay that measures catalytic activity; as such it measures relative functional potency regardless of the mechanism of enzyme inhibition. This assay uses the form of the various enzymes that are easiest to express, which may not necessarily be the form of the enzyme that exist in the cell. (Sometimes the carboxy terminus has been truncated to aid in expression, or, if it is a receptor kinase, the enzyme itself is isolated from the other parts of the receptor that are involved in regulating kinase activity.)
(§2) The reagent used was as follows: Base Reaction buffer; 20 mM Hepes (pH 7.5), 10 mM MgCl2, 1 mM EGTA, 0.01% Brij35, 0.02 mg/ml BSA, 0.1 mM Na3VO4, 2 mM DTT, 1% DMSO. Required cofactors were added individually to each kinase reaction.
(§3) The reaction procedure was as follows: • 1) Substrates were prepared in freshly prepared Reaction Buffer. • 2) Any required cofactors were delivered to the substrate solution above. • 3) Kinase was delivered into the substrate solution and gently mixed. • 4) Compounds were delivered in 100% DMSO into the kinase reaction mixture by Acoustic technology (Echo550; nanoliter range), followed by incubation for 20 min at room temp. • 5) ^33P-ATP was delivered into the reaction mixture to initiate the reaction. • 6) The mixture was incubated for 2 hours at room temperature. • 7) Kinase activity was detected by P81 filter-binding method.

FLT3 = target: T2, FLT3 (Homo sapiens, UniProt P36888); experiment: RBC HotSpot Kinase Assay, FLT3
T2 construct: purchased Reaction Biology (RBC HotSpot Kinase Assay)
T2 sequence (P36888 564-958 limits assumed): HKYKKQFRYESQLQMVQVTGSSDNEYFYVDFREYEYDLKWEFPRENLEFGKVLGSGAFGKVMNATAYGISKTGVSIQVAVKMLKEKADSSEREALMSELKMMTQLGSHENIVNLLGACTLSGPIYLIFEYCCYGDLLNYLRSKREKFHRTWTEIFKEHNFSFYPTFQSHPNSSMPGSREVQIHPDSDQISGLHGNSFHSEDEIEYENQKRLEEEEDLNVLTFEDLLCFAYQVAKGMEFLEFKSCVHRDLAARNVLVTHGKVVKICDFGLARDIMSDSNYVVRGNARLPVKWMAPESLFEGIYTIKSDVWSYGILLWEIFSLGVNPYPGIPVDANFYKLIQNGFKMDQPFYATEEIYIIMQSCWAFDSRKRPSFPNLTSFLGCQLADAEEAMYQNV
Text: as §1, §2, §3

IRAK1 = target: T3, IRAK1 (Homo sapiens, UniProt P51617); experiment: RBC HotSpot Kinase Assay, IRAK1
T3 construct: purchased Reaction Biology (RBC HotSpot Kinase Assay)
Text: as §1, §2, §3

T3 sequence (P51617 whole entry): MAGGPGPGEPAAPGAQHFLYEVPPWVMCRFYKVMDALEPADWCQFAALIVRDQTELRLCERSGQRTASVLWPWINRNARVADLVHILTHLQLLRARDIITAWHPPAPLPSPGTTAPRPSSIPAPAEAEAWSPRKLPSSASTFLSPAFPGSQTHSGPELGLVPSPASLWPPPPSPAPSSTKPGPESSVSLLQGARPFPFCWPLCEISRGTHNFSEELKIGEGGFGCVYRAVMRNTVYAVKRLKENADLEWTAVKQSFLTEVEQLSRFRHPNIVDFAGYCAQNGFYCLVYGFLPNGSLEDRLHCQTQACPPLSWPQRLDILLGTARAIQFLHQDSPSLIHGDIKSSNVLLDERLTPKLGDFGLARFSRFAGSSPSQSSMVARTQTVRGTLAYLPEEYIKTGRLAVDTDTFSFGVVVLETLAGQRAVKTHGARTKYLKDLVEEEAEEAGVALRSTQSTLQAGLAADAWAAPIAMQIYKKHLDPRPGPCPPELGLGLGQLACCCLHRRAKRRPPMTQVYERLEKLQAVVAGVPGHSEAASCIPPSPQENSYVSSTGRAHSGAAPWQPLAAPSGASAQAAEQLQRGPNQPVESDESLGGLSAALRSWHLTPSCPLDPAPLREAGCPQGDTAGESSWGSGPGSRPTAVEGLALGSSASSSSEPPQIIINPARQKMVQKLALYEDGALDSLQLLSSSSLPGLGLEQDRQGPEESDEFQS

| Structure (SMILES) | IC50 (IRAK4) [µM] | IC50 (FLT3) [µM] | IC50 (IRAK1) [µM] |
| --- | --- | --- | --- |
| COc1ccc2ncc(-c3cccc(N[C@H]4CNC[C@@H]4F)n3)n2n1 [Compound 87, N-((3S,4S)-4-fluoropyrrolidin-3-yl)-6-(6-methoxyimidazo[1,2-b]pyridazin-3-yl)pyridin-2-amine] | 0.083 | 0.003 | 1.65 |
| Fc1cc(F)c2c(-c3ccc4ncc(-c5cccc(NC6CNCC6(F)F)n5)n4n3)cnn2c1 (stereo not drawn) [Compound 55, 6-(6-(4,6-difluoropyrazolo[1,5-a]pyridin-3-yl)imidazo[1,2-b]pyridazin-3-yl)-N-(4,4-difluoropyrrolidin-3-yl)pyridin-2-amine] | 0.113 | 0.016 | 6.84 |
| CC(C)(C)c1ccc2ncc(-c3cccc(N[C@H]4CNC[C@@H]4F)n3)n2n1 [Compound 80, 6-(6-(tert-butyl)imidazo[1,2-b]pyridazin-3-yl)-N-((3S,4S)-4-fluoropyrrolidin-3-yl)pyridin-2-amine] | 0.231 | 0.011 | 3.42 |
| Cn1cc(-c2ccc3ncc(-c4cccc(NC5CCNC5)n4)n3n2)cn1 (stereo not drawn) [Compound 30, 6-(6-(1-methyl-1H-pyrazol-4-yl)imidazo[1,2-b]pyridazin-3-yl)-N-(pyrrolidin-3-yl)pyridin-2-amine] | 0.104 | 0.002 | 0.565 |
| c1ccc(-n2cc(-c3ccc4ncc(-c5cccc(NC6CC7(CNC7)C6)n5)n4n3)cn2)cc1 [Compound 33, N-(6-(6-(1-phenyl-1H-pyrazol-4-yl)imidazo[1,2-b]pyridazin-3-yl)pyridin-2-yl)-2-azaspiro[3.3]heptan-6-amine] | 3.36 | 0.016 | > 10 |
| c1cc(NC2CC3(CNC3)C2)nc(-c2cnc3ccc(-c4cnn(C5CNC5)c4)nn23)c1 [Compound 37, N-(6-(6-(1-(azetidin-3-yl)-1H-pyrazol-4-yl)imidazo[1,2-b]pyridazin-3-yl)pyridin-2-yl)-2-azaspiro[3.3]heptan-6-amine] | 4.32 | 0.007 | > 10 |
| F[C@H]1CNC[C@@H]1Nc1cccc(-c2cnc3ccc(NC4CCC4)nn23)n1 [Compound 91, N-cyclobutyl-3-(6-(((3S,4S)-4-fluoropyrrolidin-3-yl)amino)pyridin-2-yl)imidazo[1,2-b]pyridazin-6-amine] | 0.101 | 0.006 | 1.64 |
| CC(C)n1cc(-c2ccc3ncc(-c4cccc(NC5CC6(CCNC6)C5)n4)n3n2)cn1 (stereo not drawn) [Compound 39, N-(6-(6-(1-isopropyl-1H-pyrazol-4-yl)imidazo[1,2-b]pyridazin-3-yl)pyridin-2-yl)-6-azaspiro[3.4]octan-2-amine] | 0.321 | 0.008 | 2.33 |
| Cc1oncc1-c1ccc2ncc(-c3cccc(NC4CC5(CNC5)C4)n3)n2n1 [Compound 36, N-(6-(6-(5-methylisoxazol-4-yl)imidazo[1,2-b]pyridazin-3-yl)pyridin-2-yl)-2-azaspiro[3.3]heptan-6-amine] | 2.7 | 0.005 | 3.78 |
| c1ccc(-n2cc(-c3ccc4ncc(-c5cccc(NC6CCC7(CNC7)C6)n5)n4n3)cn2)cc1 (stereo not drawn) [Compound 47, N-(6-(6-(1-phenyl-1H-pyrazol-4-yl)imidazo[1,2-b]pyridazin-3-yl)pyridin-2-yl)-2-azaspiro[3.4]octan-6-amine] | 3.2 | 0.019 | > 10 |
| FC(F)n1cc(-c2ccc3ncc(-c4cccc(N[C@@H]5CCCNC5)n4)n3n2)cn1 [Compound 16] | 0.157 | < 0.0005 | 3.06 |

These reach a lower IC50 (IRAK4). Values come first.

| IC50 (IRAK4) [µM] | IC50 (FLT3) [µM] | IC50 (IRAK1) [µM] | Structure (SMILES) |
| --- | --- | --- | --- |
| 0.052 | 0.004 | 0.284 | F[C@H]1CNCC[C@@H]1Nc1cccc(-c2cnc3ccc(-c4cnn(C5CC5)c4)nn23)n1 [Compound 7, 6-(6-(1-cyclopropyl-1 H-pyrazol-4-yl)imidazo[1,2-b]pyridazin-3-yl)-N-((3S,4S)-3-fluoropiperidin-4-yl)pyridin-2-amine] |
| 0.044 | 0.006 | 0.678 | FC1(F)CNCC1Nc1cccc(-c2cnc3ccc(-c4cnn(C5CC5)c4)nn23)n1 (stereo not drawn) [Compound 22, 6-(6-(1-cyclopropyl-1H-pyrazol-4-yl)imidazo[1,2-b]pyridazin-3-yl)-N-(4,4-difluoropyrrolidin-3-yl)pyridin-2-amine] |
| 0.039 | 0.004 | 2.68 | F[C@H]1CNC[C@@H]1Nc1cccc(-c2cnc3ccc(N4CCC4)nn23)n1 [Compound 93, 6-(6-(azetidin-1-yl)imidazo[1,2-b]pyridazin-3-yl)-N-((3S,4S)-4-fluoropyrrolidin-3-yl)pyridin-2-amine] |
| 0.037 | 0.002 | 0.937 | COc1cc2ncc(-c3cccc(N[C@H]4CNC[C@@H](F)C4)n3)n2nc1C1(C(F)(F)F)CC1 [Compound 86, N-((3R,5S)-5-fluoropiperidin-3-yl)-6-(7-methoxy-6-(1-(trifluoromethyl)cyclopropyl)imidazo[1,2-b]pyridazin-3-yl)pyridin-2-amine] |
| 0.033 | 0.006 | 1.05 | F[C@H]1CNC[C@@H]1Nc1cccc(-c2cnc3ccc(N4CCCCC4)nn23)n1 [Compound 94, N-((3S,4S)-4-fluoropyrrolidin-3-yl)-6-(6-(piperidin-1-yl)imidazo[1,2-b]pyridazin-3-yl)pyridin-2-amine] |
| 0.029 | 0.006 | 1.86 | FC(F)c1ccc2ncc(-c3cccc(N[C@H]4CNC[C@@H]4F)n3)n2n1 [Compound 78, 6-(6-(difluoromethyl)imidazo[1,2-b]pyridazin-3-yl)-N-((3S,4S)-4-fluoropyrrolidin-3-yl)pyridin-2-amine] |
| 0.026 | 0.001 | 0.349 | c1cc(NC2CC3(CNC3)C2)nc(-c2cnc3ccc(-c4cnn5ccccc45)nn23)c1 [Compound 61, N-(6-(6-(pyrazolo[1,5-a]pyridin-3-yl)imidazo[1,2-b]pyridazin-3-yl)pyridin-2-yl)-2-azaspiro[3.3]heptan-6-amine] |
| 0.021 | < 0.0005 | 0.86 | Cn1cc(-c2ccc3ncc(-c4cccc(N[C@H]5CNC[C@@H]5C(F)(F)F)n4)n3n2)cn1 [Compound 11, 6-(6-(1-methyl-1 H-pyrazol-4-yl)imidazo[1,2-b]pyridazin-3-yl)-N-((3R,4S)-4-(trifluoromethyl)pyrrolidin-3-yl)pyridin-2-amine] |
| 0.021 | 0.003 | 4.57 | F[C@H]1CNC[C@@H]1Nc1cccc(-c2cnc3ccc(C(F)(F)F)nn23)n1 [Compound 79, N-((3S,4S)-4-fluoropyrrolidin-3-yl)-6-(6-(trifluoromethyl)imidazo[1,2-b]pyridazin-3-yl)pyridin-2-amine] |
| 0.012 | 0.002 | 0.621 | FC1(F)CNCC1Nc1cccc(-c2cnc3ccc(-c4cnn5c4CCCC5)nn23)n1 (stereo not drawn) [Compound 59, N-(4,4-difluoropyrrolidin-3-yl)-6-(6-(4,5,6,7-tetrahydropyrazolo[1,5-a]pyridin-3-yl)imidazo[1,2-b]pyridazin-3-yl)pyridin-2-amine] |
| 0.009 | < 0.0005 | 1.82 | c1cc(N[C@@H]2CCCNC2)nc(-c2cnc3ccc(-c4cnn(C5CC5)c4)nn23)c1 [Compound 17, (R)-6-(6-(1-cyclopropyl-1 H-pyrazol-4-yl)imidazo[1,2-b]pyridazin-3-yl)-N-(piperidin-3-yl)pyridin-2-amine] |

From patent US12534469B2 (CHILDREN'S HOSPITAL MEDICAL CENTER, priority 2020, dated 2026)
